Measurements from patent US7179821B2, “Method of treating of demyelinating diseases or conditions” (Aventis Pharmaceuticals Inc., priority 2001, dated 2007).

What was measured:
[1] = system: transient focal cerebral ischemia; test: Transient focal cerebral ischemia in rats, lesion size; type: in vivo, rat; settings: 10 mg/kg iv 1 hour after ischemia onset
Experimental: Methods: Male Sprague-Dawley rats [Iffa Credo, France] weighing about 220–240 g were anaesthetized with halothane (1.4%) in a nitrous oxide-oxygen mixture (70:30). Both common carotid arteries (CCAs) were isolated. The left middle cerebral artery (MCA) exposed via a temporal craniotomy was occluded with a microclip, and simultaneously the CCAs were occluded for 1 hour. Both body and cerebral temperatures were kept at normothermia. Following surgery animals were returned to their home cages in a room warmed at 24–26° C.
HP184, dissolved in 1% tween (in injectable sterile water), was administered at 10 and 20 mg/kg iv 1 hour after ischemia onset, and control rats received the vehicle according to the same protocol. At 24 h post-ischemia, a neurological function using a 9 points grading scale was performed blindly.
Thereafter rats were killed and brains were removed. Fresh sections were cut with a brain matrix and stained with triphenyl tetrazolium chloride 2% at 37° C. for 5 min. The sections were then stored in 10% formalin at 4° C. for 24 h. Areas of infarction were measured with an image analyzer (Leica Q500).

[2] = micromolar brain concentrations one hour after ip administration of 30 mg/kg in rats; cited from earlier work
[3] = system: demyelinated area at the moderate compression injury site; test: Histological study of spinal cords, demyelinated area (luxol fast blue); type: in vivo, rat
Experimental: A study to test whether the treatment with HP184 affected the amount of myelin in rats with moderate long term spinal cord crush injury when administered long after spinal cord injury.
The spinal cords from rats described above in the assessment were used for this study.
(50–60 mg/kg body weight, i.p.) and perfused transcardically—first with 100 mL 0.05M phosphate buffed saline (PBS) containing 0.1% heparin, followed by 300–500 mL of 4% paraformaldehyde (PFA). Segments T9 to L1 of the spinal cords were taken out, then cryo-protected in 30% sucrose solution and frozen at −70° C. in 10.24% polyvinyl alcohol and 4.26% polyethylene glycol.
A segment of each cord including the lesion site plus 10 mm rostral and caudal to the lesion site was embedded in Tissue Tek medium. Serial sections were cut longitudinally at 20 μm intervals on a cryostat. Every third section was stained with luxol fast blue for myelin. The evaluation was performed by observers blinded as to treatment, on coded slides. Sections were examined under a light microscope for the extent of demyelination (the area without luxol fast blue staining).
For determinations of the maximal demyelinated area of the cord, the whole section was digitized on photographs using a Zeiss microscope. The extent of demyelination was measured at the lesion center using a computerized Bioquant BQ-TCW98 image analysis progrem by an investigator who was blind to treatment group.
Statistical analysis was performed on a Macintosh computer using GB-Stat ppc 6.5.2. The histological results were analyzed by the Kruskal-Wallis nonparametric analysis of variance (ANOVA). Post hoc comparisons were made using Mann-Whitney U tests.

[4] = system: RuR-induced flaccid paralysis; test: Antagonism of ruthenium red (RuR)-induced flaccid paralysis, flagpole test; type: in vivo, mouse
Experimental: Method and Results: Groups of 4–5 mice (CD-1; Charles River; 25–35 grams) were separately but simultaneously injected ip with ruthenium red and vehicle (1% glacial acetic acid), ruthenium red and 4-AP, or ruthenium red and HP 184. The compound known as “8183” was also tested in this paradigm. Starting at 15 minutes after injections, mice were placed near a “flagpole” apparatus and their ability to support their own body weight (ie, to hold on to the flagpole and not fall) was recorded. Results were recorded as the number of mice that could support their own body weight versus the total number of mice tested. All experiments were performed between 2PM and 4:30PM.

acute bladder irritation = test: Bladder irritation in the rat (protamine sulfate/KCl model), continuous open cystometry; type: in vivo; settings: intravenous, cumulative dose-response, urethane anesthetized rats, P=0.0019
Experimental: Fraser et al combined protamine sulfate treatment, thought to breakdown urothelial umbrella cell barrier function, and physiologic urine concentrations of KCl (500 mM). The effects of intravenous HP-184 were compared to vehicle alone (n=4/group) in a cumulative dose-response study in urethane anesthetized rats with acute bladder irritation. Continuous open cystometry, which measures the filling and emptying of the bladder during continuous infusion, was utilized to determine the effect of the drug on bladder irritation. When the bladder is irritated, it contracts more frequently during the same filling rate due to sensitization of C-fiber afferent nerves. FIG. 8 illustrates the dose-dependent decrease in bladder contraction frequency from pre-administration irritation values compared to the effects of vehicle alone.

[5] = 10 mg/kg ip with RuR 30 mg/kg ip, 15 min
[6] = 10 mg/kg ip with RuR 30 mg/kg ip, 30 min
[7] = 10 mg/kg ip with RuR 30 mg/kg ip, 45 min
[8] = 30 mg/kg ip with RuR 30 mg/kg ip, 15 min
[9] = 30 mg/kg ip with RuR 30 mg/kg ip, 30 min
[10] = 30 mg/kg ip with RuR 30 mg/kg ip, 45 min

SMILES: CCCN(c1ccncc1F)n1cc(C)c2ccccc21 [HP184, N-(3-fluoro-4-pyridinyl)-N-propyl-3-methyl-1H-indole-1-amine]
- reduction of lesion in the cortex ([1]; cortex): −45%
- reduction of brain lesions ([1]; measured 24 h post-ischemia): 41%
- tolerability [2]: very well-tolerated
- extent of demyelination, comparison of the groups ([3]; 3 mg/kg po): showed the least demyelination
- myelin at the site of injury ([3]; 3 mg/kg/day by oral gavage from 35 to 41 days after moderate crush injury): more myelin at the site of injury
- myelinated / demyelinated area at the crush center, FIG. 7 ([3]; HP184 0.3, 1 or 3 mg/kg po or 4-AP 0.6 mg/kg ip, days 35–42 after moderate crush): significantly greater myelinated area than that of saline controls
- % of mice that could support their own body weight [4, 5]: (93.3%)
- number of mice that could support their own body weight versus total tested [4, 5]: 14 out of 15
- % of mice that could support their own body weight [4, 6]: (80%)
- number of mice that could support their own body weight versus total tested [4, 6]: 12 out of 15
- % of mice that could support their own body weight [4, 7]: (73.3%)
- number of mice that could support their own body weight versus total tested [4, 7]: 11 out of 15
- % of mice that could support their own body weight [4, 8]: (100%)
- number of mice that could support their own body weight versus total tested [4, 8]: 15 out of 15
- % of mice that could support their own body weight [4, 9]: (100%)
- number of mice that could support their own body weight versus total tested [4, 9]: 15 out of 15
- % of mice that could support their own body weight [4, 10]: (100%)
- number of mice that could support their own body weight versus total tested [4, 10]: 15 out of 15
- antagonism of the flaccid paralysis induced by ip RuR (conclusion) ([4]; ip, doses of Table 3): can antagonize the flaccid paralysis
- bladder contraction frequency in irritated bladders, FIG. 8 (acute bladder irritation): significantly decreased bladder contraction frequency in irritated bladders in a dose-dependent fashion
